Experimental data taken from PubChem BioAssay AID1996.
Converted amounts (≈) assume the structure as drawn.

Conditions: buffer; pH 7.4; 200.0 µM

solubility kinetic | SMILES
12.5 µg/mL (≈ 46.2 µM) | Cc1csc(NC(=O)c2cnc3ccccc3n2)n1
34.9 µg/mL (≈ 130 µM) | O=C(NCc1ccc(F)cc1)c1cc2ccccc2o1
18.9 µg/mL (≈ 67.4 µM) | O=C(CN1C(=O)c2ccccc2C1=O)Nc1ccccc1
> 39.6 µg/mL | O=C(Nc1ncccc1O)c1ccc2ccccc2c1
48.7 µg/mL (≈ 149 µM) | Cn1cccc1C(=O)OCC(=O)N1CCN(c2ccccc2)CC1
> 54.9 µg/mL | CCCN(CC(=O)Nc1cc(Cl)ccc1Cl)C(=O)c1ccccn1
> 51.2 µg/mL | O=C(COC(=O)c1cc[n+]([O-])cc1)Nc1ccc(Cl)cc1Cl
< 0.4 µg/mL | O=C(Nc1ccccc1)Nc1scc2c1c(=O)oc1ccccc12
> 35 µg/mL | CC(c1ccccc1)N1CC(C(=O)O)CC1=O (configuration not stated)
47.1 µg/mL (≈ 144 µM) | Cc1sc2ncnc(NCC(c3ccccc3)N(C)C)c2c1C (configuration not stated)
1.5 µg/mL (≈ 4.74 µM) | O=C(/C=C/c1ccccc1[N+](=O)[O-])NCc1ccccc1Cl
9.3 µg/mL (≈ 18 µM) | CCOc1ccc(Br)cc1S(=O)(=O)Nc1ccc(S(=O)(=O)Nc2cc(C)on2)cc1
4.4 µg/mL (≈ 12.7 µM) | CC(=O)Nc1ccc(NC(=O)c2ccccc2Nc2ccccc2)cc1
< 0.4 µg/mL | COc1cc(C)c(NC(=O)C(=S)NCc2ccccc2)cc1C
1.1 µg/mL (≈ 3.69 µM) | Cc1cccc(NC(=S)NC(=O)Cc2ccccc2)c1C
> 51.9 µg/mL | Cn1c2c(c(=O)n(C)c1=O)C(CC(=O)Nc1ccccc1F)C(=O)N2 (configuration not stated)
37.8 µg/mL (≈ 108 µM) | OCCN1CCN(c2nc(-c3ccccc3O)nc3ccccc23)CC1
16.8 µg/mL (≈ 52.9 µM) | Cc1ccc(NC(=O)CCNC(=O)c2ccc(Cl)cc2)nc1
18.4 µg/mL (≈ 38.8 µM) | CC(C)(C)N(Cc1ccccc1)C(=O)COC(=O)c1ccc(S(=O)(=O)N2CCOCC2)cc1
2.4 µg/mL (≈ 6.75 µM) | N/C(CC(=O)Nc1ccc(F)c(Cl)c1)=N\OC(=O)c1cccs1
45.1 µg/mL (≈ 147 µM) | O=S(=O)(Nc1ccc(C(F)(F)F)cc1)c1cccs1
35.9 µg/mL (≈ 103 µM) | CCOC(=O)C1=C(c2ccccc2)OC(N)=C(C#N)C1c1cccnc1 (configuration not stated)
1 µg/mL (≈ 2.9 µM) | Cc1ccc(C(=O)NC(C(=O)Nc2ccccc2)c2ccccc2)cc1 (configuration not stated)

Second part, the compound before the results:

SMILES | solubility kinetic
CCN(CCO)Cc1cc(=O)oc2cc3c(cc12)CCC3 | 42.1 µg/mL (≈ 147 µM)
O=C(CN1CCCCCC1)Nc1ccc(Br)cc1[N+](=O)[O-] | 0.4 µg/mL (≈ 1.12 µM)
Cc1ccc(N2CC(C(=O)N3CCCCC3)CC2=O)cc1C (configuration not stated) | > 45.1 µg/mL
CCOc1ccccc1N1CCN(C(=O)CC(C)(C)C)CC1 | 45.1 µg/mL (≈ 148 µM)
CCCCN(C)CCNC(=O)C(=O)c1c(C)[nH]c2ccccc12 | > 47.3 µg/mL
Cc1ccc(Sc2ncnc3onc(C)c23)c(C)c1 | 1.9 µg/mL (≈ 7 µM)
N#CCSc1nc2ccccc2c(=O)n1CC1CCCC1 | 0.8 µg/mL (≈ 2.67 µM)
Oc1ccc(Cl)cc1CNc1ccccn1 | 6.5 µg/mL (≈ 27.7 µM)
CC(C)(C)NC(=O)NC(=O)CN1CCN(c2ccccc2O)CC1 | 44.8 µg/mL (≈ 134 µM)
Cc1nc2ccc([N+](=O)[O-])cc2s1 | 19.4 µg/mL (≈ 99.9 µM)
CCOC(=O)c1sc(=S)n(-c2ccc(OC)cc2)c1N | 2 µg/mL (≈ 6.44 µM)
CN(C1CCCCC1)S(=O)(=O)c1ccc(SCC(=O)C(C)(C)C)nc1 | 3.2 µg/mL (≈ 8.32 µM)
O=[N+]([O-])c1ccccc1OCc1nc(-c2cccs2)no1 | 0.9 µg/mL (≈ 2.97 µM)
CC(C)=CC(=O)OCC(=O)Nc1cc(C)ccc1C | 15 µg/mL (≈ 57.4 µM)
COc1ccccc1Oc1ccc2c(c1)C(=O)N(CC1CCCO1)C2=O (configuration not stated) | 40.3 µg/mL (≈ 114 µM)
C=CCON/C(CCC)=C1\C(=O)CC(C)(C)CC1=NC | 34.9 µg/mL (≈ 125 µM)
Cc1[nH]nc(SCC(=O)N2CCOCC2)c1[N+](=O)[O-] | > 42.9 µg/mL
CC1CN=C(NCCc2ccccc2)S1 (configuration not stated) | > 33 µg/mL
O=C(COc1cccc(Br)c1)Nc1ccc(Cl)c(S(=O)(=O)N2CCOCC2)c1 | 4.1 µg/mL (≈ 8.37 µM)
O=S(=O)(c1cccc(C(F)(F)F)c1)c1ccc(O)cn1 | 41.1 µg/mL (≈ 136 µM)
Cc1csc(SCC(=O)Nc2ccc(F)cc2Cl)n1 | > 47.5 µg/mL
Cc1ccnc(SCC(=O)NC2CCCCCC2)n1 | 33 µg/mL (≈ 118 µM)
O/N=C1\CCCc2c1nc(-c1ccccc1F)n2O | > 39.2 µg/mL
CCSc1ccc(/C(N)=N/OC(=O)c2cccs2)cn1 | 0.3 µg/mL (≈ 0.976 µM)
